Assay results: PubChem BioAssay AID1963971 (Molecular Pharmacology Branch, DTP, NCI, 2024)

System: 953936-095-R-J2-PDC spheroids with HUVEC/MSC, viability
Test: Anticancer human tumor 953936-095-R-J2-PDC patient-derived cervical squamous cell carcinoma cell line growth inhibition [PI3K]
Conditions: for IC50: curve of first compound; for viability, T/C: stronger effect = lower value
Summary of the method: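 Combination activity was assessed by viability in multicellular tumor spheroids carrying HUVEC and MSC components. Agents were tested with PI3K inhibitors from a Cmax-based top dose (or 10 microM) downward in half-log increments.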

[1] = second compound 0.0316 µM, first compound 0.0316 µM
[2] = second compound 0.0316 µM, first compound 0.1 µM
[3] = second compound 0.0316 µM, first compound 0.316 µM
[4] = second compound 0.0316 µM, first compound 1 µM
[5] = second compound 0.0316 µM, first compound 3.16 µM
[6] = second compound 0.0316 µM, first compound 10 µM
[7] = second compound 0.1 µM, first compound 0.0316 µM
[8] = second compound 0.1 µM, first compound 0.1 µM
[9] = second compound 0.1 µM, first compound 0.316 µM
[10] = second compound 0.1 µM, first compound 1 µM
[11] = second compound 0.1 µM, first compound 3.16 µM
[12] = second compound 0.1 µM, first compound 10 µM
[13] = second compound 0.316 µM, first compound 0.0316 µM
[14] = second compound 0.316 µM, first compound 0.1 µM
[15] = second compound 0.316 µM, first compound 0.316 µM
[16] = second compound 0.316 µM, first compound 1 µM
[17] = second compound 0.316 µM, first compound 3.16 µM
[18] = second compound 0.316 µM, first compound 10 µM
[19] = second compound 1 µM, first compound 0.0316 µM
[20] = second compound 1 µM, first compound 0.1 µM
[21] = second compound 1 µM, first compound 0.316 µM
[22] = second compound 1 µM, first compound 1 µM
[23] = second compound 1 µM, first compound 3.16 µM
[24] = second compound 1 µM, first compound 10 µM
[25] = second compound 3.16 µM, first compound 0.0316 µM
[26] = second compound 3.16 µM, first compound 0.1 µM
[27] = second compound 3.16 µM, first compound 0.316 µM
[28] = second compound 3.16 µM, first compound 1 µM
[29] = second compound 3.16 µM, first compound 3.16 µM
[30] = second compound 3.16 µM, first compound 10 µM
[31] = second compound 10 µM, first compound 0.0316 µM
[32] = second compound 10 µM, first compound 0.1 µM
[33] = second compound 10 µM, first compound 0.316 µM
[34] = second compound 10 µM, first compound 1 µM
[35] = second compound 10 µM, first compound 3.16 µM
[36] = second compound 10 µM, first compound 10 µM
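Further: spheroids exposed to compounds for seven days before read-out.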

C=CC(=O)N1CCN(c2nc(=O)n(-c3c(C)ccnc3C(C)C)c3nc(-c4c(O)cccc4F)c(F)cc23)C(C)C1 (stereo not drawn) + Cc1nc(NC(=O)N2CCCC2C(N)=O)sc1-c1ccnc(C(C)(C)C(F)(F)F)c1
IC50 (second compound 0.0316 µM): > 10000 nM | IC50 (second compound 0.1 µM): > 10000 nM | IC50 (second compound 0.316 µM): > 10000 nM | IC50 (second compound 1 µM): < 31.6 nM | IC50 (second compound 3.16 µM): < 31.6 nM | IC50 (second compound 10 µM): < 31.6 nM | viability, T/C [1]: 85.5% | viability, T/C [2]: 89.2% | viability, T/C [3]: 95.8% | viability, T/C [4]: 109% | viability, T/C [5]: 110% | viability, T/C [6]: 105% | viability, T/C [7]: 81.9% | viability, T/C [8]: 83.7% | viability, T/C [9]: 90.2% | viability, T/C [10]: 98.6% | viability, T/C [11]: 123% | viability, T/C [12]: 117% | viability, T/C [13]: 64.5% | viability, T/C [14]: 65.7% | viability, T/C [15]: 68.8% | viability, T/C [16]: 86% | viability, T/C [17]: 84.4% | viability, T/C [18]: 73.7% | viability, T/C [19]: 46% | viability, T/C [20]: 52.1% | viability, T/C [21]: 47.7% | viability, T/C [22]: 51.5% | viability, T/C [23]: 55.9% | viability, T/C [24]: 48% | viability, T/C [25]: 27% | viability, T/C [26]: 27.8% | viability, T/C [27]: 27% | viability, T/C [28]: 32.8% | viability, T/C [29]: 33.4% | viability, T/C [30]: 26.1% | viability, T/C [31]: 11.5% | viability, T/C [32]: 11.8% | viability, T/C [33]: 11.9% | viability, T/C [34]: 11.9% | viability, T/C [35]: 10.8% | viability, T/C [36]: 7.49%

CC(Cn1ccc(-c2ccc(C#N)c(Cl)c2)n1)NC(=O)c1cc(C(C)O)[nH]n1 (stereo not drawn) + Cc1nc(NC(=O)N2CCCC2C(N)=O)sc1-c1ccnc(C(C)(C)C(F)(F)F)c1
IC50 (second compound 0.0316 µM): > 10000 nM | IC50 (second compound 0.1 µM): > 10000 nM | IC50 (second compound 0.316 µM): > 10000 nM | IC50 (second compound 1 µM): < 31.6 nM | IC50 (second compound 3.16 µM): < 31.6 nM | IC50 (second compound 10 µM): < 31.6 nM | viability, T/C [1]: 83.7% | viability, T/C [2]: 95.2% | viability, T/C [3]: 86.4% | viability, T/C [4]: 96.9% | viability, T/C [5]: 89.8% | viability, T/C [6]: 107% | viability, T/C [7]: 84.8% | viability, T/C [8]: 77.9% | viability, T/C [9]: 78.2% | viability, T/C [10]: 81.2% | viability, T/C [11]: 82.4% | viability, T/C [12]: 79.5% | viability, T/C [13]: 69.4% | viability, T/C [14]: 65.3% | viability, T/C [15]: 74.1% | viability, T/C [16]: 61% | viability, T/C [17]: 61.7% | viability, T/C [18]: 66.5% | viability, T/C [19]: 43.9% | viability, T/C [20]: 41.7% | viability, T/C [21]: 43.5% | viability, T/C [22]: 45.9% | viability, T/C [23]: 44.1% | viability, T/C [24]: 44.6% | viability, T/C [25]: 24.7% | viability, T/C [26]: 26.9% | viability, T/C [27]: 27.6% | viability, T/C [28]: 25.2% | viability, T/C [29]: 26.9% | viability, T/C [30]: 28.4% | viability, T/C [31]: 10.3% | viability, T/C [32]: 10.8% | viability, T/C [33]: 10.9% | viability, T/C [34]: 11.1% | viability, T/C [35]: 10.8% | viability, T/C [36]: 13%

Cn1ncc(Cl)c1-c1cc(C(=O)NC(CN)Cc2cccc(F)c2)sc1Cl (stereo not drawn) + Cc1nc(NC(=O)N2CCCC2C(N)=O)sc1-c1ccnc(C(C)(C)C(F)(F)F)c1
IC50 (second compound 0.0316 µM): 378 nM | IC50 (second compound 0.1 µM): 392 nM | IC50 (second compound 0.316 µM): 165 nM | IC50 (second compound 1 µM): < 31.6 nM | IC50 (second compound 3.16 µM): < 31.6 nM | IC50 (second compound 10 µM): < 31.6 nM | viability, T/C [1]: 76.7% | viability, T/C [2]: 75.7% | viability, T/C [3]: 50.5% | viability, T/C [4]: 32.2% | viability, T/C [5]: 17.5% | viability, T/C [6]: 12.8% | viability, T/C [7]: 79.4% | viability, T/C [8]: 77.3% | viability, T/C [9]: 53.2% | viability, T/C [10]: 28.9% | viability, T/C [11]: 16.6% | viability, T/C [12]: 9.11% | viability, T/C [13]: 60.4% | viability, T/C [14]: 56.8% | viability, T/C [15]: 41.8% | viability, T/C [16]: 23.9% | viability, T/C [17]: 13.9% | viability, T/C [18]: 9.97% | viability, T/C [19]: 43.5% | viability, T/C [20]: 40% | viability, T/C [21]: 32.1% | viability, T/C [22]: 19.2% | viability, T/C [23]: 11.3% | viability, T/C [24]: 6.42% | viability, T/C [25]: 25.1% | viability, T/C [26]: 24% | viability, T/C [27]: 19.2% | viability, T/C [28]: 13.6% | viability, T/C [29]: 8.24% | viability, T/C [30]: 4.61% | viability, T/C [31]: 11.2% | viability, T/C [32]: 10.5% | viability, T/C [33]: 11.5% | viability, T/C [34]: 8.02% | viability, T/C [35]: 4.99% | viability, T/C [36]: 1.1%

Cn1nccc1Nc1nccc(-c2ccn(C(CO)c3ccc(Cl)c(F)c3)c(=O)c2)n1 (stereo not drawn) + Cc1nc(NC(=O)N2CCCC2C(N)=O)sc1-c1ccnc(C(C)(C)C(F)(F)F)c1
IC50 (second compound 0.0316 µM): > 10000 nM | IC50 (second compound 0.1 µM): > 10000 nM | IC50 (second compound 0.316 µM): > 10000 nM | IC50 (second compound 1 µM): < 31.6 nM | IC50 (second compound 3.16 µM): < 31.6 nM | IC50 (second compound 10 µM): < 31.6 nM | viability, T/C [1]: 77.7% | viability, T/C [2]: 89.9% | viability, T/C [3]: 78.3% | viability, T/C [4]: 69.5% | viability, T/C [5]: 72.9% | viability, T/C [6]: 67.1% | viability, T/C [7]: 77.1% | viability, T/C [8]: 76.3% | viability, T/C [9]: 66.7% | viability, T/C [10]: 74.3% | viability, T/C [11]: 63% | viability, T/C [12]: 68.5% | viability, T/C [13]: 63.3% | viability, T/C [14]: 55.9% | viability, T/C [15]: 52.6% | viability, T/C [16]: 56.4% | viability, T/C [17]: 57.7% | viability, T/C [18]: 52.6% | viability, T/C [19]: 45.3% | viability, T/C [20]: 39.7% | viability, T/C [21]: 38.8% | viability, T/C [22]: 37.6% | viability, T/C [23]: 40.1% | viability, T/C [24]: 31.9% | viability, T/C [25]: 23.5% | viability, T/C [26]: 23.9% | viability, T/C [27]: 21.1% | viability, T/C [28]: 17.2% | viability, T/C [29]: 15.2% | viability, T/C [30]: 10.8% | viability, T/C [31]: 11.4% | viability, T/C [32]: 9.37% | viability, T/C [33]: 6.34% | viability, T/C [34]: 4.57% | viability, T/C [35]: 3.58% | viability, T/C [36]: 1.86%
